Like-named read-outs stand apart in the source and are kept apart here.
Tests used:
C1b domain of human PKCδ = target: T1, C1b domain of human PKCδ (Homo sapiens, UniProt Q05655); test: Competitive 3H-PDBu binding to C1b domain of PKCδ; conditions: 3H-PDBu competition
T1 construct: Genes encoding C1b domains of human PKCα, δ, ε, θ, and PKD1 (PKCμ) were synthesized; made in house; host or cells: E. coli BL21(DE3)
How it was run: (§1)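 Binding is reported as Ki, derived from IC50 using Cheng-Prusoff with the experimentally determined 3H-PDBu Kd of each protein preparation. Tracer displacement from recombinant human GST-C1b (E. coli BL21(DE3)) was read by filter scintillation after 10 min at 37° C plus 20 min on ice.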

[1] = tested on: A549 non-small cell lung cancer cell line; test: Proliferation of A549 (CellTiter Glo); type: cell-based; conditions: read-out: IC50 μM (A549 Cell Line)
How it was run: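 Luminescent CellTiter Glo read-out after 96 h compound exposure of A549 cells plated at 1,000/well and rested 24 h at 37° C; DMSO kept ≤0.25%, dilutions 3-fold. Inhibition taken relative to DMSO-treated wells; IC50, relative IC50 and top inhibition derived by curve fitting.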

[2] = tested on: Namalwa (Lymphoma) cell line; test: Proliferation of Namalwa; type: cell-based; conditions: for IC50: read-out: IC50 in μM Namalwa (Lymphoma); for ratio of (IC50 of K01)/(IC50 of compound), Namalwa: value in parenthesis
Protocol: (§2) The diterpenoid compounds were tested in A549, a non-small cell lung cancer cell line harboring a K-Ras activating mutation. Briefly, A549 cells at a density of 1,000 cells/well were seeded in 96-well plates and incubated at 37° C. for 24 hours. A series of different concentrations of compound stocks (500×) were prepared by 3-fold serial dilution in DMSO. These compounds were further diluted in culture media and then added to cells so that the final DMSO concentration was not exceeding 0.25%. After 96 hours of incubation, 50 μL of CellTiter Glo reagent (Promega) was added to each well and luminescence was measured after 10 minutes using EnVision (PerkinElmer). Luminescence from cells treated with DMSO alone was set as Max and % of inhibition was calculated as follows: Inhibition %=(Max−Sample value)/Max×100. Data was analyzed using XL-fit software (ID Business Solutions Ltd.) and IC50, relative IC50, and % of top inhibition was calculated. Some of the compounds in this disclosure were very potent in blocking proliferation of A549 lung cancer cells at low nM range. In addition, potency of inhibiting A549 proliferation correlated well with its binding affinity to PKCs for this series of compounds. In other words, higher affinity binders had stronger inhibitory effects on A549 proliferation. This further support the notion that activation, rather than inhibition, of certain PKC isoforms is required to block proliferation of cancer cells, some of which may harbor K-Ras mutations. This is in sharp contrast to previous literature and common belief that inhibition of PKC is necessary to block cancer cell growth (Kang, 2014, New Journal of Science, 2014:1-36). Data presented here is in agreement with recent findings that many loss-of-function but not gain-of-function mutations of PKC isoforms have been identified in many human cancers (Antal et al., 2015, Cell, 160:489-502).
(§3) The compounds in this disclosure were tested for their potency in blocking proliferation of a few other cancer cells lines, including K-Ras mutant pancreatic cell lines Panc2.13 and KP-4, leukemia cell line HL-60, and lymphoma cell lines Namalwa and Mino. Similar procedures as in Example 67 were followed. Initial cell numbers seeded in 96-well plates were different for different cell lines: 3000 cells/well for Panc2.13; 800-1000 cells/well for KP-4; 5000 cells/well for HL-60; 5000-10000 cells/well for Namalwa and Mino. A ratio ratio of (IC50 of K01)/(IC50 of compound) (data in parenthesis in Table 5) was used to normalize the compound potency from different assay batches to a common comparator […].

[3] = tested on: phosphorylation of PKCμ, PKCδ and Erk1/2 in A549 lung cancer cells; type: cell-based; conditions: 30 minutes
Protocol: Cells were then treated with different drugs at indicated concentrations for 30 minutes. […] Imagequant LAS4000 (GE) was used to scan membranes if secondary antibodies anti-mouse IgG HRP conjugate or anti-rabbit IgG HRP conjugate (dilutions from 1:2000-1:10000) were used. For ProteinSimple Wes system, manufacture's procedure was followed (ProteinSimple 12-230 kDa Wes Separation Module) for sample preparation, loading, running, and data analysis.
Phosphorylation of these sites has been linked to acute activation or catalytic activity of the PKC isoforms and Erk1/2. High level of phosphorylation indicates strong activation.

[4] = tested on: KP-4 (Pancreatic) cell line; test: Proliferation of KP-4; type: cell-based
Protocol: as §2, §3

[5] = tested on: HL-60 (Leukemia) cell line; test: Proliferation of HL-60; type: cell-based; conditions: for ratio of (IC50 of K01)/(IC50 of compound), HL-60: value in parenthesis
Protocol: as §2, §3

C1b domain of human PKCε = target: T2, C1b domain of human PKCε (Homo sapiens, UniProt Q02156); test: Competitive 3H-PDBu binding to C1b domain of PKCε
T2 construct: Genes encoding C1b domains of human PKCα, δ, ε, θ, and PKD1 (PKCμ) were synthesized; made in house; host or cells: E. coli BL21(DE3)
Protocol: (§4) Compounds described in this disclosure were tested for binding affinity to C1b domain of PKC isoforms. Compound binding affinity to C1b domain of PKC isoforms was derived from competitive binding assay using radioactive tracer ^3H-PDBu and recombinant GST-C1b or full-length of human PKC proteins based on modified procedures from Methods in Molecular Biology, vol.
(§5) Genes encoding C1b domains of human PKCα, δ, ε, θ, and PKD1 (PKCμ) were synthesized and inserted into pGEX-2TK or pGEX-4T1 vectors for expression and production of GST-C1b proteins in E. coli BL21(DE3) via IPTG induction. The target proteins were purified by glutathione sepharose 4B and followed by ion exchange chromatography if needed to achieve purity >70%. Aliquots of the purified proteins were stored at −80 degree for binding assay (storage buffer: 20 mM Tris pH 8.0, 200 mM NaCl, 10% glycerol, 1 mM DTT).
(§6) The plate was incubated at 37° C. on a shaker at 300 rpm for 10 minutes and then put on ice for 20 minutes. […] The bottom of the filter plate was sealed and 50 μL of MicroScint-20 (PerkinElmer) cocktail was added to each well. ^3H-PDBu trapped in each well was counted using PerkinElmer MicroBeta2 Reader. Data were analyzed using GraphPad Prism5 with the model “log(inhibitor) vs. response-variable slope” to fit the IC50, and then IC50 was transformed to Ki using Cheng-Prusoff equation: Ki=IC50/(1+added radio ligand/Kd). Kd is the binding affinity of each protein preparation to ^3H-PDBu, determined experimentally.

[6] = target: T3, C1b domain of human PKD1 (PKCμ) (Homo sapiens, UniProt Q15139); test: biochemical; type: binding
T3 construct: Genes encoding C1b domains of human PKCα, δ, ε, θ, and PKD1 (PKCμ) were synthesized; made in house; host or cells: E. coli BL21(DE3)
T3 sequence (Q15139 270-320 limits assumed): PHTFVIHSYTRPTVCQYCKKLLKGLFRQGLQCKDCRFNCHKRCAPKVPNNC
How it was run: as §1

[7] = tested on: Mino (Lymphoma) cell line; test: Proliferation of Mino; type: cell-based; conditions: for IC50: read-out: IC50 in μM Mino (Lymphoma); for ratio of (IC50 of K01)/(IC50 of compound), Mino: value in parenthesis
Protocol: as §2, §3

[8] = tested on: Panc2.13 (Pancreatic) cell line; test: Proliferation of Panc2.13; type: cell-based; conditions: for IC50: read-out: IC50 in μM Panc2.13 (Pancreatic); for ratio of (IC50 of K01)/(IC50 of compound), Panc2.13: value in parenthesis
Protocol: as §2, §3

C1b domain of human PKCθ = target: T4, C1b domain of human PKCθ (Homo sapiens, UniProt Q04759); test: Competitive 3H-PDBu binding to C1b domain of PKCθ
T4 construct: Genes encoding C1b domains of human PKCα, δ, ε, θ, and PKD1 (PKCμ) were synthesized; made in house; host or cells: E. coli BL21(DE3)
T4 sequence (Q04759 231-281 limits assumed): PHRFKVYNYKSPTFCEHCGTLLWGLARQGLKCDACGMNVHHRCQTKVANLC
Protocol: as §4, §5, §6

C1b domain of human PKCα = target: T5, C1b domain of human PKCα (Homo sapiens, UniProt P17252); test: biochemical; type: binding; conditions: 3H-PDBu competition
T5 construct: Genes encoding C1b domains of human PKCα, δ, ε, θ, and PKD1 (PKCμ) were synthesized; made in house; host or cells: E. coli BL21(DE3)
How it was run: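 Competitive binding against 3H-PDBu tracer used recombinant GST-C1b fusion protein expressed in E. coli. Incubation ran 10 min at 37°C with shaking, then 20 min on ice, followed by filtration and scintillation counting of trapped 3H-PDBu. Affinity was derived using each protein preparation's experimentally determined Kd for 3H-PDBu.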

[9] = Homo sapiens, HL-60, read-out: IC50 in μM HL-60 (Leukemia)

T1 sequence (Q05655 230-280 limits assumed): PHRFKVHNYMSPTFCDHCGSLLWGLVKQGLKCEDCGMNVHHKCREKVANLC
T2 sequence (Q02156 242-292 limits assumed): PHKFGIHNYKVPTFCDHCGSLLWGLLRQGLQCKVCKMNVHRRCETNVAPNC

Compound | ratio of (IC50 of K01)/(IC50 of compound), Namalwa ([2]; Namalwa) | phosphorylation of PKC (PKD/PKCμ), PKCδ and Erk1/2 ([3]; 3 μM, Western blot) | ratio of (IC50 of K01)/(IC50 of compound), HL-60 ([5]; HL-60) | ratio of (IC50 of K01)/(IC50 of compound), Mino ([7]; Mino) | Ki (C1b domain of human PKCδ; Ki PKCδ) | IC50 ([1]; Homo sapiens, A549, 96 h) | Ki [6] | Ki (C1b domain of human PKCα; Ki PKCα) | other results
CC1=C[C@H]2[C@@]3(O)[C@H](C)C[C@]4(OC(=O)[C@@H](N)Cc5ccccc5)[C@H]([C@@H]3C=C(CO)C[C@]2(O)C1=O)C4(C)C [Compound K101-C1303] | 0.19 | induced phosphorylation | 0.9 | 0.57 |  |  |  |  | Ki (C1b domain of human PKCδ; read-out: Ki PKCδ): 30 to 60 nM; IC50 ([1]; A549, 96 hours incubation, CellTiter Glo): 0.6 to 1 µM; IC50 ([2]; Namalwa): 0.2 to 0.6 µM; IC50 ([4]; KP-4, read-out: IC50 in μM KP-4 (Pancreatic)): 0.6 to 1 µM; IC50 ([5]; HL-60, read-out: IC50 in μM HL-60 (Leukemia)): 0.2 to 0.6 µM; Ki (C1b domain of human PKCε; C1b domain of human PKCε, 3H-PDBu competition, read-out: Ki PKCε): 100 to 200 nM; Ki ([6]; C1b domain of human PKD1 (PKCμ), 3H-PDBu competition, read-out: Ki PKD1/PKCμ): 1 to 30 nM; IC50 ([7]; Mino): 0.1 to 0.2 µM; IC50 ([8]; Panc2.13): 1 to 2 µM; ratio of (IC50 of K01)/(IC50 of compound), Panc2.13 ([8]; Panc2.13): 0.75; Ki (C1b domain of human PKCθ; C1b domain of human PKCθ, 3H-PDBu competition, read-out: Ki PKCθ): 30 to 60 nM; Ki (C1b domain of human PKCα; read-out: Ki PKCα): 400 to 800 nM
CC1=C[C@H]2[C@@]3(O)[C@H](C)C[C@]4(OC(=O)CCc5ccncc5)[C@H]([C@@H]3C=C(CO)C[C@]2(O)C1=O)C4(C)C [Compound K101-C1315] |  | induced phosphorylation |  |  | 100 to 200 nM | 1 to 2 µM | 30 to 60 nM | > 8000 nM | 
CC1=C[C@H]2[C@@]3(O)[C@H](C)C[C@]4(OC(=O)CCc5ccccn5)[C@H]([C@@H]3C=C(CO)C[C@]2(O)C1=O)C4(C)C [Compound K101-C1316] |  | induced phosphorylation |  |  | 100 to 200 nM | 0.6 to 1 µM | 30 to 60 nM | 6000 to 8000 nM | 
CC1=C[C@H]2[C@@]3(O)[C@H](C)C[C@]4(OC(=O)CCc5ncc(-c6ccc(Cl)cc6)o5)[C@H]([C@@H]3C=C(CO)C[C@]2(O)C1=O)C4(C)C [Compound K101-C1321] | 1.15 |  | 5.71 | 5.36 | < 5 nM | 0.03 to 0.06 µM | < 5 nM |  | IC50 [2]: 0.03 to 0.06 µM; phosphorylation of PKC (PKD/PKCμ), PKCδ and Erk1/2 ([3]; 0.3 μM, Western blot (FIG. 1)): induced high levels of phosphorylation; IC50 [5, 9]: 0.06 to 0.1 µM; IC50 ([7]; Homo sapiens, MINO): 0.01 to 0.03 µM; Ki PKCα (C1b domain of human PKCα): E (E=>60 nM and ≤10 nM)
CC/C=C\C/C=C\C/C=C\C/C=C\C/C=C\C/C=C\CCC(=O)O[C@@]12C[C@@H](C)[C@@]3(O)[C@@H](C=C(CO)C[C@]4(O)C(=O)C(C)=C[C@@H]34)[C@@H]1C2(C)C [Compound K101-C1333] | 20.9 |  | 80 | 82.5 | < 5 nM | 0.001 to 0.01 µM | < 5 nM |  | IC50 [2]: 0.001 to 0.01 µM; IC50 ([4]; Homo sapiens, KP-4, read-out: IC50 in μM KP-4 (Pancreatic)): 0.001 to 0.01 µM; IC50 [5, 9]: 0.001 to 0.01 µM; Ki (C1b domain of human PKCε): 1 to 30 nM; IC50 ([7]; Homo sapiens, MINO): < 0.001 µM; ratio of (IC50 of K01)/(IC50 of compound), Panc2.13 ([8]; Panc2.13): 157; IC50 [8]: 0.001 to 0.01 µM; Ki (C1b domain of human PKCθ): < 5 nM; Ki PKCα (C1b domain of human PKCα): E (E=>60 nM and ≤10 nM)
CC1=C[C@H]2[C@@]3(O)[C@H](C)C[C@]4(OC(=O)[C@H](N)Cc5ccccc5)[C@H]([C@@H]3C=C(CO)C[C@]2(O)C1=O)C4(C)C [Compound K101-C1336] |  | induced phosphorylation |  |  | 100 to 200 nM | 1 to 2 µM | 30 to 60 nM | 2000 to 4000 nM | 
CC1=C[C@H]2[C@@]3(O)[C@H](C)C[C@]4(OC(=O)[C@H](N)CC5CCCCC5)[C@H]([C@@H]3C=C(CO)C[C@]2(O)C1=O)C4(C)C [Compound K101-C1337] |  |  |  |  | 1 to 30 nM | 0.2 to 0.6 µM | 5 to 10 nM | 1000 to 2000 nM | phosphorylation of PKC (PKD/PKCμ), PKCδ and Erk1/2 ([3]; Western blot, concentration not given, compared with enantiomer K101-C1327): induced much lower levels of phosphorylation
